Values of other authors, collected in patent US20060253014A1 (priority 2003, published 2006).
Like-named read-outs stand apart in the source and are kept apart here.

System: inbred mouse strains

Compound	Sensitive Strains (low AD50) (murine strains, AD50 = the half-maximal antinociceptive dose)	Resistant Stains (high AD50) (mouse, in vivo)	Sensitive Strains (low AD50) (mouse, in vivo)
Clc1cccc(Cl)c1N=C1NCCN1 [Clonidine, clonidine]	129P3, A, AKR,		
Cc1c(C(=O)c2cccc3ccccc23)c2cccc3c2n1[C@H](CN1CCOCC1)CO3 [WIN 55, 212-2]		AKR, C57BL/10, C58	129P3, A, DBA/2
CN1CC[C@]23c4c5ccc(O)c4O[C@H]2[C@@H](O)C=C[C@H]3[C@H]1C5 [morphine]			129P3, C3H/He, DBA/2
Clc1ccc(C2CC3CCC2N3)cn1 (stereo not drawn) [Epibetadine, epibatidine]		AKR, CBA, C57BL/10	A, BALB/c
